Reference: paper PMC2980852 (Biochemistry, 2010)

Target: LuxG (Photobacterium leiognathi, UniProt P29237)
Test: stopped-flow NADH fluorescence, amplitude titration
Assay type: binding

Sequence of LuxG (P29237 whole entry): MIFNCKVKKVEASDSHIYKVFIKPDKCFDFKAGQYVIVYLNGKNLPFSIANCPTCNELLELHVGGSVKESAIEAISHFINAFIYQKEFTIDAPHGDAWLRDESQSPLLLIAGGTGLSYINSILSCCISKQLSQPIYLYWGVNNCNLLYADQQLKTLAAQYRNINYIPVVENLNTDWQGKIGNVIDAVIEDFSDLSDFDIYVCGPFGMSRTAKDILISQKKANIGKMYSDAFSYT

Kd: 25 ± 4 µM
Compound: NC(=O)C1=CN([C@@H]2O[C@H](COP(=O)(O)OP(=O)(O)OC[C@H]3O[C@@H](n4cnc5c(N)ncnc54)[C@H](O)[C@@H]3O)[C@@H](O)[C@H]2O)C=CC1 [NADH]
